Columns and labels:
Type in all cases: in vitro ADME
BCRP = target: T1, BCRP (Homo sapiens, UniProt Q9UNQ0); experiment: in vitro; settings: dog
T1 construct: expressed in transfected cells; host or cells: MDCK (canine kidney) cells expressing BCRP
T1 sequence (Q9UNQ0 1-655): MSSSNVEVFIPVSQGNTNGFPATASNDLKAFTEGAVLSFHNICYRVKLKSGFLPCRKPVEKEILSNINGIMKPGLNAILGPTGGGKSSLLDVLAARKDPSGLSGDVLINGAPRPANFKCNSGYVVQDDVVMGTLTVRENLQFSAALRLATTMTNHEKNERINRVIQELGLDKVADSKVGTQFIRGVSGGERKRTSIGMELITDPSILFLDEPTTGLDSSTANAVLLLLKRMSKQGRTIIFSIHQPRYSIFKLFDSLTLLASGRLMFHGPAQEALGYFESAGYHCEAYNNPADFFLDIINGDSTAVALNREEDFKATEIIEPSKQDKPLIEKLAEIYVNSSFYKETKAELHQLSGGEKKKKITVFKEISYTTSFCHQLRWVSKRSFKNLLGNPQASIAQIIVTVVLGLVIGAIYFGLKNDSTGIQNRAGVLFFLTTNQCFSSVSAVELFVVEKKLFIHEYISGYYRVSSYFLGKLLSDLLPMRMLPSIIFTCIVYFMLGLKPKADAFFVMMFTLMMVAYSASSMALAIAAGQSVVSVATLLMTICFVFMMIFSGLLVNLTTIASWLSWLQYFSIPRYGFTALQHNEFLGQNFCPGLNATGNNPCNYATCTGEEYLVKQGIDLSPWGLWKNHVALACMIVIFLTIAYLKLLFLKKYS
Excerpt: (§1) As pretargeting is a 2-component system, an ^18F-Tz was developed to be CNS-penetrant based on cnsPET-MPO modeling (Zhang, L., et al. (2018). J Med Chem 61(8): 3296-3308).

P-gp = target: T2, P-gp (Homo sapiens, UniProt P08183); experiment: MDCK-P-gp cell model of permeability (efflux ratio); settings: dog, MDCK-MDR1
T2 construct: expressed in transfected cells; host or cells: MDCK (canine kidney) cells expressing P-gp
T2 sequence (P08183 whole entry): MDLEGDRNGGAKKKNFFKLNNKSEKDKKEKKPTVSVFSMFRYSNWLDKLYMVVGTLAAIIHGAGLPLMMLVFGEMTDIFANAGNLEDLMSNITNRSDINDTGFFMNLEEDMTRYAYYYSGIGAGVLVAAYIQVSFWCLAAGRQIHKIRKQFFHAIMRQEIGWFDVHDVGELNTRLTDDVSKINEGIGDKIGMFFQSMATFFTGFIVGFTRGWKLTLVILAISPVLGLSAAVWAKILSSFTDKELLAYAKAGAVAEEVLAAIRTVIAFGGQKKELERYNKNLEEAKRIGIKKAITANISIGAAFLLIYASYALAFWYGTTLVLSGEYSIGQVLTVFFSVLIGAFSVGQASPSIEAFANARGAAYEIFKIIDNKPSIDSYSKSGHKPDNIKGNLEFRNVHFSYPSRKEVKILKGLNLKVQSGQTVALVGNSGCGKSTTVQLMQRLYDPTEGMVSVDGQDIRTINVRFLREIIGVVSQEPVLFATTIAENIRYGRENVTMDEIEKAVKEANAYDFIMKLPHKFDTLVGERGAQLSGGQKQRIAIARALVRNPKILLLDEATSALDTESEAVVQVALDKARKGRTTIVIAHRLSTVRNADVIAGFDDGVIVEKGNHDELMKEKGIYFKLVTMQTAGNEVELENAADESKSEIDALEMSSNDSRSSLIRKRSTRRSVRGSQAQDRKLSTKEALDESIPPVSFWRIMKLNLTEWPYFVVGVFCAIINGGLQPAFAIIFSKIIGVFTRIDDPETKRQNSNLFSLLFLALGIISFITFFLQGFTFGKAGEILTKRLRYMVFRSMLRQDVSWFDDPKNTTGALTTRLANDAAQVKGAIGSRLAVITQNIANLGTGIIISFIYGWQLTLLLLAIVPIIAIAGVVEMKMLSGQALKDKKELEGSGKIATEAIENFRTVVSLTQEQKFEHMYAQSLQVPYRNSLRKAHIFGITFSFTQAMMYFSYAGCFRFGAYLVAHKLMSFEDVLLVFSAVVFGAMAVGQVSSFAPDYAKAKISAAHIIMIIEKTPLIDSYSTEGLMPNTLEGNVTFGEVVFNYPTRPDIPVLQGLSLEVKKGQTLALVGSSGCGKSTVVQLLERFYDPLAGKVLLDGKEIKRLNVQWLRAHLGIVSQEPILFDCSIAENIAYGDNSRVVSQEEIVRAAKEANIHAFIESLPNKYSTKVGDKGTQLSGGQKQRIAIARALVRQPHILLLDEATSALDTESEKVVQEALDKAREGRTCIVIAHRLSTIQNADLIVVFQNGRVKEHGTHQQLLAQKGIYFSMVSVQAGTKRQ
Excerpt: as §1

[1] = Brain protein binding (BPB); settings: rat, brain tissue (brain protein binding)
Excerpt: as §1

[2] = Plasma protein binding (PPB); settings: rat, read-out: plasma protein binding, unbound
Excerpt: as §1

efflux ratio (BCRP): 0.51
efflux ratio (P-gp): 1.71
fraction unbound [1]: 0.51
fraction unbound [2]: 0.69
SMILES: O=C(Cc1ccc(-c2nncnn2)cc1)NCCF [Compound 1′, 2-(4-(1,2,4,5-tetrazin-3-yl)phenyl)-N-(2-fluoroethyl)acetamide]

From US20220290140A1, “TRANS-CYCLOOCTENE LABELED ANTISENSE OLIGONUCLEOTIDES, RADIO LABELED TETRAZINE AND METHODS” (Biogen MA Inc., priority 2019, published 2022)
